Series [1] in a line: Solubility determination in 0.01 N aqueous HCl (gravimetric, suspensions stirred, sampled after 30 min). In kind it is physicochemical. Particulars: 0.01 N aqueous HCl at 25 ± 0.1 °C, samples taken after 30 min, monohydrochloride. Here is the method: The solubility data of form E of the present invention and forms A and C of EP1632232 B1 in 0.01 N aqueous HCl at 25 ± 0.1 °C are presented in table 1. Table 1: Solubility data in 0.01 N aqueous HCl at 25 ± 0.1 °C Suspensions of forms A, C and E in 0.01 N aqueous HCl were stirred in closed vessels with a diameter of 25 mm in a thermostatic water bath at 25 ± 0.1 °C. Before the solute was added the solvent was equilibrated to the temperature. Three samples of each modification were taken with […] filter holders attached to volumetric pipettes (2 mL) via a small glass tube after 30 min. They were sucked through Millipore membrane filters (0.45 μm) and 2 mL of the clear solution were poured in vessels which had been dried and tared before. The hydrochloric acid was evaporated in a drying chamber at 60 °C for approximately 15 h before the temperature was further increased to 80 °C for approximately 3 h. To remove residue water, the vessels were subsequently dried at 110 °C and 60 mbar for approximately 3 h. Afterwards the vials with the residue were cooled to room temperature in an exsiccator and weighed on an analysis balance (Mettler AT250). The difference in weight to the tare weight was then measured to determine the solubilities.

The nature of series [2]: Water content at defined relative humidity. The series is classed as physicochemical.

As to `Cc1cc(C=CC#N)cc(C)c1Nc1ccnc(Nc2ccc(C#N)cc2)n1.Cl` [Form A, 4-[[4-[[4-(2-Cyanoethenyl)-2,6-dimethylphenyl]amino]-2-pyrimidinyl]amino]benzonitrile monohydrochloride], the Solubility (as a rule, the dissolved amount per volume that the medium holds) in series [1] (listed as A) worked out at 80 µg/mL.
For the molecule `Cc1cc(C=CC#N)cc(C)c1Nc1ccnc(Nc2ccc(C#N)cc2)n1.Cl` [Form C, 4-[[4-[[4-(2-Cyanoethenyl)-2,6-dimethylphenyl]amino]-2-pyrimidinyl]amino]benzonitrile monohydrochloride], in series [1] (listed as C), the Solubility is 100 µg/mL.
Regarding `Cc1cc(C=CC#N)cc(C)c1Nc1ccnc(Nc2ccc(C#N)cc2)n1.Cl` [Form E, 4-[[4-[[4-(2-Cyanoethenyl)-2,6-dimethylphenyl]amino]-2-pyrimidinyl]amino]benzonitrile monohydrochloride], the figures for the water result in series [2] (at a relative humidity of about 0 %) and in series [2] (at a relative humidity of about 90 %) were “about 0%” and “about 0.8%”, respectively. In series [1] (listed as E), this molecule showed a Solubility of 270 µg/mL.
